The values below come from US20240182420A1, “MICROBIOCIDAL ISONICOTINIC AMIDE DERIVATIVES” (SYNGENTA CROP PROTECTION AG, priority 2021, published 2024).

A word on the pest or weed control: it is the degree to which the test organism was suppressed or injured, in per cent. A high value points to a strong effect. By inhibition of growth is commonly meant the relative decrease from the control value, in per cent. The low end stands for a response near the control, the high end for a response far below the control.

Assay [1] has as its system Botryotinia fuckeliana syn. Botrytis cinerea. Description: Botryotinia fuckeliana syn. Botrytis cinerea (grey mold on tomato), tomato plants. Format: in vivo. As to conditions: tomato plants cv. Roter Gnom, inoculated two days after application, leaf area covered by disease 5-6 days after application. The method, then: 4-week old tomato plants cv. Roter Gnom are treated sprayed in a spray chamber with the formulated test compound diluted in water. The test plants are inoculated by spraying them with a spore suspension two days after application. The inoculated test plants are incubated at 20° C. and 95% rh in a greenhouse and the percentage leaf area covered by disease is assessed when an appropriate level of disease appears on untreated check plants (5-6 days after application).

The test system is the same in assay [2]. Description: Botryotinia fuckeliana syn. Botrytis cinerea (gray mould), liquid culture growth inhibition. In kind it is cell-based. As to conditions: PDB nutrient broth, 24° C., 72 hrs, photometric, vs untreated control. The method, then: Conidia of the fungus from cryogenic storage were directly mixed into nutrient broth (PDB potato dextrose broth). A DMSO solution of the test compounds was placed into a microtiter plate (96-well format) and the nutrient broth containing the fungal spores was added to it. The test plates were incubated at 24° C. and the inhibition of growth was determined photometrically after 72 hrs.

The subject of assay [3] is Glomerella lagenarium syn Colletotrichum lagenarium. The experiment in a line: Glomerella lagenarium syn. Colletotrichum lagenarium (anthracnose), liquid culture growth inhibition. As to conditions: Colletotrichum orbiculare, PDB nutrient broth, 24° C., 72 hrs, 620 nm, vs untreated control. Format: cell-based. The method, then:
Conidia of the fungus from cryogenic storage were directly mixed into nutrient broth (PDB potato dextrose broth). A DMSO solution of the test compounds was placed into a microtiter plate (96-well format) and the nutrient broth containing the fungal spores was added to it. The test plates were incubated at 24° C. and the inhibition of growth was determined photometrically after 72 hrs at 620 nm.

Each structure is given as a SMILES string.

Take `Cc1cccc(Oc2cnc(Cl)cc2C(=O)NCCc2ccc(Cl)cc2Cl)c1` [Compound 1.4, 2-chloro-N-[2-(2,4-dichlorophenyl)ethyl]-5-(3-methylphenoxy)pyridine-4-carboxamide]: the pest or weed control at 200 ppm in assay [1] is no less than 50%. In addition, the inhibition of growth at 20 ppm in assay [2] was no less than 80%.
Regarding `O=C(NCC(F)c1ccc(Cl)cc1Cl)c1c(F)cncc1Oc1cccc(C2CC2)c1` (stereo not shown) [Compound 1.6, 3-(3-cyclopropyl-phenoxy)-N-[2-(2,4-dichlorophenyl)-2-fluoro-ethyl]-5-fluoro-pyridine-4-carboxamide], the inhibition of growth at 20 ppm in assay [3] and in assay [2] was no less than 80% throughout. The compound further gave a pest or weed control at 200 ppm in assay [1] of no less than 50%.
For `O=C(NCC(F)c1ccc(Cl)cc1Cl)c1cc(C(F)(F)F)ncc1Oc1cccc(C2CC2)c1` (stereo not shown) [Compound 1.9, 5-(3-cyclopropyl-phenoxy)-N-[2-(2,4-dichlorophenyl)-2-fluoro-ethyl]-2-(trifluoromethyl) pyridine-4-carboxamide], the inhibition of growth at 20 ppm in assay [3] and in assay [2] was no less than 80% in each case. Moreover, in assay [1], the pest or weed control at 200 ppm is no less than 50%.
`CS(=O)(=O)c1cc(C(=O)NCC(F)c2ccc(Cl)cc2Cl)c(Oc2cccc(C3CC3)c2)cn1` (stereo not shown) [Compound 1.10, 5-(3-cyclopropyl-phenoxy)-N-[2-(2,4-dichlorophenyl)-2-fluoro-ethyl]-2-methylsulfonyl-pyridine-4-carboxamide]: the inhibition of growth at 20 ppm in assay [3] and in assay [2] was no less than 80% each time. This compound came in with a pest or weed control at 200 ppm in assay [1] of no less than 50%.
`O=C(NCC(F)c1ccc(Cl)cc1Cl)c1ccncc1Oc1cccc(C2CC2)c1` (stereo not shown) [Compound 1.11, 3-(3-cyclopropyl-phenoxy)-N-[2-(2,4-dichlorophenyl)-2-fluoro-ethyl]pyridine-4-carboxamide] had an inhibition of growth at 20 ppm in assay [3] of no less than 80%. In assay [1], the pest or weed control at 200 ppm was no less than 50%.
Consider `O=C(NCCc1ccc(Cl)cc1Cl)c1cc(Cl)ncc1Oc1cccc(C2CC2)c1` [Compound 1.15, 2-chloro-5-(3-cyclopropyl-phenoxy)-N-[2-(2,4-dichlorophenyl)ethyl]pyridine-4-carboxamide], for which the inhibition of growth at 20 ppm in assay [3] and in assay [2] was no less than 80% each time. The compound also returned a pest or weed control at 200 ppm in assay [1] of no less than 50%.
Regarding `O=C(NCC(F)c1ccc(Cl)cc1Cl)c1cc(Cl)ncc1Oc1cccc(C2CC2)c1` (stereo not shown) [Compound 1.16, 2-chloro-5-(3-cyclopropyl-phenoxy)-N-[2-(2,4-dichlorophenyl)-2-fluoro-ethyl]pyridine-4-carboxamide], the inhibition of growth at 20 ppm in assay [3] and in assay [2] was no less than 80% each time. Further, the pest or weed control at 200 ppm in assay [1] is no less than 50%.
Consider `Cc1cc(C(=O)NCC(F)c2ccc(Cl)cc2Cl)c(Oc2cccc(C3CC3)c2)c(Cl)n1` (stereo not shown) [Compound 1.17, 2-chloro-3-(3-cyclopropyl-phenoxy)-N-[2-(2,4-dichlorophenyl)-2-fluoro-ethyl]-6-methyl-pyridine-carboxamide], for which the inhibition of growth at 20 ppm in assay [3] and in assay [2] was no less than 80% throughout.
For `O=C(NCCc1ccc(Cl)cc1)c1cc(Cl)ncc1Oc1cccc(C2CC2)c1` [Compound 1.24, 2-chloro-N-[2-(4-chlorophenyl)ethyl]-5-(3-cyclopropyl-phenoxy)pyridine-4-carboxamide], the inhibition of growth at 20 ppm in assay [3] and in assay [2] was no less than 80% each time.
For the compound `O=C(NCC(F)(F)c1ccc(F)cc1F)c1cc(Cl)ncc1Oc1cccc(C2CC2)c1` [Compound 1.32, 2-chloro-5-(3-cyclopropyl-phenoxy)-N-[2-(2,4-difluorophenyl)-2,2-difluoro-ethyl]pyridine-4-carboxamide], the inhibition of growth at 20 ppm in assay [3] and in assay [2] was no less than 80% in each case.
`C#Cc1cccc(Oc2cnc(C)cc2C(=O)NCC(F)c2ccc(C)cc2C)c1` (stereo not shown) [Compound 1.38, N-[2-(2,4-dimethylphenyl)-2-fluoro-ethyl]-5-(3-ethynylphenoxy)-2-methyl-pyridine-4-carboxamide] displayed a pest or weed control at 200 ppm in assay [1] of no less than 50%. In assay [2], this compound displayed an inhibition of growth at 20 ppm of no less than 80%.
As to `Cc1cc(C(=O)NC[C@H](F)c2ccc(Cl)cc2Cl)c(Oc2cccc(C3CC3)c2)cn1` [Compound 1.42, 5-(3-cyclopropyl-phenoxy)-N-[(2R)-2-(2,4-dichlorophenyl)-2-fluoro-ethyl]-2-methyl-pyridine-4-carboxamide], the inhibition of growth at 20 ppm in assay [3] and in assay [2] was no less than 80% throughout.
Consider `Cc1cccc(Oc2cnc(Cl)cc2C(=O)NCCc2ccc(Cl)cc2)c1` [Compound 1.47, 2-chloro-N-[2-(4-chlorophenyl)ethyl]-5-(3-methylphenoxy) pyridine-4-carboxamide], for which the inhibition of growth at 20 ppm in assay [3] and in assay [2] was no less than 80% in each case.
On to `Cc1ccc(CCNC(=O)c2cc(Cl)ncc2Oc2cccc(C3CC3)c2)cc1` [Compound 1.53, 2-chloro-5-(3-cyclopropyl-phenoxy)-N-[2-(p-tolyl)ethyl]pyridine-4-carboxamide], for which the inhibition of growth at 20 ppm in assay [3] and in assay [2] was no less than 80% each time.
With `Cc1ccc(CCNC(=O)c2cc(Cl)ncc2Oc2cccc(C)c2)cc1` [Compound 1.57, 2-chloro-5-(3-methylphenoxy)-N-[2-(p-tolyl)ethyl]pyridine-4-carboxamide], the inhibition of growth at 20 ppm in assay [3] and in assay [2] was no less than 80% each time.
Turning to `O=C(NCC(F)c1ccc(Cl)cc1Cl)c1cc(Cl)ncc1Oc1ccc(F)c(F)c1` (stereo not shown) [Compound 1.62, 2-chloro-N-[2-(2,4-dichlorophenyl)-2-fluoro-ethyl]-5-(3,4-difluorophenoxy) pyridine-4-carboxamide], in assay [2], the inhibition of growth at 20 ppm is no less than 80%.
As to `CCc1cccc(Oc2cnc(Cl)cc2C(=O)NCC(F)c2ccc(Cl)cc2Cl)c1` (stereo not shown) [Compound 1.66, 2-chloro-N-[2-(2,4-dichlorophenyl)-2-fluoro-ethyl]-5-(3-ethylphenoxy) pyridine-4-carboxamide], the inhibition of growth at 20 ppm in assay [3] and in assay [2] was no less than 80% throughout.
Take `O=C(NCC(F)c1ccc(Cl)cc1Cl)c1cc(Cl)ncc1Oc1ccccc1` (stereo not shown) [Compound 1.67, 2-chloro-N-[2-(2,4-dichlorophenyl)-2-fluoro-ethyl]-5-phenoxy-pyridine-4-carboxamide]: the inhibition of growth at 20 ppm in assay [2] was no less than 80%.
Consider `O=C(NCCc1ccc(Cl)cc1Cl)c1cc(Cl)ncc1Oc1cccc(Cl)c1` [Compound 1.68, 2-chloro-5-(3-chlorophenoxy)-N-[2-(2,4-dichlorophenyl)ethyl]pyridine-4-carboxamide], for which the inhibition of growth at 20 ppm in assay [3] and in assay [2] was no less than 80% each time.
Take `O=C(NCC(F)(F)c1ccccc1)c1cc(Cl)ncc1Oc1cccc(C2CC2)c1` [Compound 1.71, 2-chloro-5-(3-cyclopropyl-phenoxy)-N-(2,2-difluoro-2-phenyl-ethyl)pyridine-4-carboxamide]: the inhibition of growth at 20 ppm in assay [3] and in assay [2] was no less than 80% in each case.
With `O=C(N[C@@H]1C[C@@H]1c1ccc(F)cc1)c1cc(Cl)ncc1Oc1cccc(C2CC2)c1` [Compound 1.75, 2-chloro-5-(3-cyclopropyl-phenoxy)-N-[(1R,2R)-2-(4-fluorophenyl)cyclopropyl]pyridine-4-carboxamide], the inhibition of growth at 20 ppm in assay [3] and in assay [2] was no less than 80% each time.
Consider `Cc1ccc(C(F)(F)CNC(=O)c2cc(Cl)ncc2Oc2cccc(C3CC3)c2)c(C)c1` [Compound 1.76, 2-chloro-5-(3-cyclopropyl-phenoxy)-N-[2-(2,4-dimethylphenyl)-2,2-difluoro-ethyl]pyridine-4-carboxamide], for which the inhibition of growth at 20 ppm in assay [3] and in assay [2] was no less than 80% each time.
`Cc1ccc(CCNC(=O)c2cc(Cl)ncc2Oc2cccc(C3CC3)c2)c(C)c1` [Compound 1.77, 2-chloro-5-(3-cyclopropyl-phenoxy)-N-[2-(2,4-dimethylphenyl)ethyl]pyridine-4-carboxamide]: the inhibition of growth at 20 ppm in assay [3] and in assay [2] was no less than 80% in each case.
Turning to `CC(C)=Cc1ncc(Oc2cccc(C3CC3)c2)c(C(=O)NCC(F)c2ccc(Cl)cc2Cl)c1O` (stereo not shown) [Compound 1.89, 5-(3-cyclopropyl-phenoxy)-N-[2-(2,4-dichlorophenyl)-2-fluoro-ethyl]-3-hydroxy-2-(2-methylprop-1-enyl)pyridine-4-carboxamide], the inhibition of growth at 20 ppm in assay [3] and in assay [2] was no less than 80% each time.
Turning to `Cc1cc(C(=O)NCC2(c3ccc(Cl)cc3Cl)CC2)c(Oc2cccc(C3CC3)c2)cn1` [Compound 1.90, 5-(3-cyclopropyl-phenoxy)-N-[[1-(2,4-dichlorophenyl)cyclopropyl]methyl]-2-methyl-pyridine-4-carboxamide], the inhibition of growth at 20 ppm in assay [3] and in assay [2] was no less than 80% throughout.
Regarding `Cc1cncc(Oc2cccc(C3CC3)c2)c1C(=O)NC[C@@H](F)c1ccc(Cl)cc1Cl` [Compound 1.93, 3-(3-cyclopropyl-phenoxy)-N-[(2S)-2-(2,4-dichlorophenyl)-2-fluoro-ethyl]-5-methyl-pyridine-4-carboxamide], the inhibition of growth at 20 ppm in assay [3] and in assay [2] was no less than 80% each time.
